Reference: patent US6369034B1, “Functionalized alkyl and alenyl side chain derivatives of glycinamides as farnesyl transferase inhibitors” (Warner-Lambert Company, priority 1998, dated 2002)
Like-named read-outs stand apart in the source and are kept apart here.

Key:
[1] = target: T1, SF9 affinity purified rat FPT (Rattus norvegicus, UniProt Q02293+Q04631); test: PFT inhibitory activity; assay type: biochemical; conditions: average of two tests
T1 construct: made in house; host or cells: Sf9 insect cells
Procedure: The protein:farnesyl transferase (PFT) or farnesyl protein transferase (FPT) inhibitory activity of compounds of the present invention were assayed in HEPES buffer (pH 7.4) containing 5 mM potassium phosphate and 20 μM ZnCl2. The solution also contained 5 mM DTT (dithiothreitol), 5 mM MgCl2, and 0.1% PEG 8000. Assays were performed in 96 well plates (Wallec) and employed solutions composed of varying concentrations of a compound of the present invention in 10% DMSO (dimethylsulfoxide). Upon addition of both substrates, radiolabeled farnesyl pyrophosphate ([1^3H], specific activity 15-30 Ci/mmol, final concentration 134 nM) and (biotinyl)-Ahe-Thr-Lys-Cys-Val-Ile-Met ([3aS[3a alpha, 4 beta, 6a alpha]-hexahydro-2-oxo-1H-thieno[3,4-d]imidazole-5-pentanoic acid]-[7-aminoheptanoic acid]-Thr-Lys-Cys-Val-Ile-Met) (Ahe is 7-aminoheptanoic acid, Thr is threonine, Lys is lysine, Cys is cysteine, Val is valine, Ile is isoleucine, and Met is methionine) (final concentration 0.2 4μM), the enzyme reaction was started by addition of SF9 affinity purified rat FPT. After incubation at 30° C. for 30 minutes, the reaction was terminated by diluting the reaction 2.5-fold with a stop buffer containing 1.5 M magnesium acetate, 0.2 M H3PO4, 0.5% BSA (bovine serum albumin), and strepavidin beads (Amersham) at a concentration of 1.3 mg/mL. After allowing the plate to settle for 30 minutes at room temperature, radioactivity was quantitated on a microBeta counter (Model 1450, Wallec). The assay was also carried out without 5 mM potassium phosphate.

[2] = system: Ras protein in ras-transformed cells; test: Gel Shift Assay; assay type: cell-based; conditions: 18-hour incubation, read-out: Gel Shift (μM) MED
Procedure: Twenty-four hours after planting 2×10^6 ras-transformned cells per treatment condition, the farnesylation inhibitor is added at varying concentrations. Following an 18-hour incubation period, cells are lysed in phosphate-buffered saline containing 1% Triton X-100, 0.5% sodium deoxycholate, and 0.1% SDS (sodium dodecyl sulfate), pH 7.4 in the presence of several protease inhibitors (PMSF (phenylmethylsulfonylfluoride), antipain, leupeptin, pepstatin A, and aprotinin all at 1 μg/mL). Ras protein is immunoprecipitated from the supernatants by the addition of 3 μg v-H-ras Ab-2 (Y13-259 antibody from Oncogene Science). After overnight immunoprecipitation, 30 μL of a 50% protein G-Sepharose slurry (Pharmacia) is added followed by 45-minute incubation. Pellets are resuspended in 2×tris-glycine loading buffer (Novex) containing 5% mercaptoethanol and then denatured by 5 minutes boiling prior to electrophoresis on 14% Tris-glycine SDS gels. Using Western transfer techniques, proteins are transferred to nitrocellulose membranes followed by blocking in blocking buffer. Upon overnight incubation with primary antibody (pan-ras Ab-2 from Oncogene Science), an antimouse HRP (horse radish peroxidase) conjugate secondary antibody (Amersham) is employed for detection of the ras protein. Blots are developed using ECL(enhanced chemiluminescence) techniques (Amersham).

[3] = system: human lung carcinoma with K-ras mutation and p53 deletion; conditions: nude mice; cited from earlier work
[4] = system: mammary and salivary carcinomas; conditions: daily administration; ras transgenic mice; cited from earlier work
[5] = HEPES buffer pH 7.4, without 5 mM potassium phosphate, read-out: IC50 (μM) Hepes
[6] = HEPES buffer pH 7.4 containing 5 mM potassium phosphate, read-out: IC50 (μM) Hepes/5 mM KPO4^−2

SMILES	IC50 [1, 5] [µM]	IC50 [1, 6] [µM]	minimal effective concentration [2] [µM]	tumor growth [3]	tumor regression [4]
C[C@@H](c1ccccc1)N(CC(=O)NCC(C)(C)c1ccccc1)C(=O)[C@H](Cc1c[nH]cn1)NC(=O)OCc1ccccc1 [Example 1, Benzyl N-((1S)-1-(1H-4-imidazolylmethyl)-2-2-[(2-methyl-2-phenylpropyl)amino]-2-oxoethyl[(1S)-1-phenylethyl]amino-2-oxoethyl)carbamate]	0.57	0.001	0.01	–	–
C[C@H](c1ccccc1)N(CC(=O)NCC(C)(C)c1ccccc1)C(=O)[C@H](Cc1c[nH]cn1)NC(=O)OCc1ccccc1 [Example 2, Benzyl N-((1S)-1-(1H-4-imidazolylmethyl)-2-2-[(2-methyl-2-phenylpropyl)amino]-2-oxoethyl[(1R)-1-phenylethyl]amino-2-oxoethyl)carbamate]	8.3	0.065	1	–	–
CC(C)(CNC(=O)CN(CC(C)(C)c1ccccc1)C(=O)[C@H](Cc1c[nH]cn1)NC(=O)OCc1ccccc1)c1ccccc1 [Example 3, Benzyl N-[(1S)-1-(1H-4-imidazolylmethyl)-2-((2-methyl-2-phenylpropyl)2-[(2-methyl-2-phenylpropyl)amino]-2-oxoethylamino)-2-oxoethyl]carbamate]	0.098	0.001	0.01	–	–
COC(=O)CCN(CC(=O)NCC(C)(C)c1ccccc1)C(=O)[C@H](Cc1c[nH]cn1)NC(=O)OCc1ccccc1 [Example 4, Methyl 3-([(2S)-2-[(benzyloxy)carbonyl]amino-3-(1H-4-imidazolyl)propanoyl]-2-[(2-methyl-2-phenylpropyl)amino]-2-oxoethylamino)propanoate]	5	0.018	0.1	–	–
CC(C)(CNC(=O)CN(CCC(=O)O)C(=O)[C@H](Cc1c[nH]cn1)NC(=O)OCc1ccccc1)c1ccccc1 [Example 5, 3-([(2S)-2-[(Benzyloxy)carbonyl]amino-3-(1H-4-imidazolyl)propanoyl]-2-[(2-methyl-2-phenylpropyl)amino]-2-oxoethylamino)propanoic acid]	2.3	< 0.001	1	–	–
CC(C)(CNC(=O)CN(CCN)C(=O)C(Cc1cnc[nH]1)NC(=O)OCc1ccccc1)c1ccccc1 (centres unmarked) [Example 6, [1-{(2-Amino-ethyl)-[(2-methyl-2-phenyl-propylcarbamoyl)-methyl]-carbamoyl}-2-(3H-imidazol-4-yl)-ethyl]-carbamic acid benzyl ester]	36	0.072	> 1	–	–
CNCCN(CC(=O)NCC(C)(C)c1ccccc1)C(=O)[C@H](Cc1c[nH]cn1)NC(=O)OCc1ccccc1 [Example 7, Benzyl N-[(1S)-1-(1H-4-imidazolylmethyl)-2-([2-(methylamino)ethyl]-2-[(2-methyl-2-phenylpropyl)amino]-2-oxoethylamino)-2-oxoethyl]carbamate]	> 30	0.92	–	–	–
COCCN(CC(=O)NCC(C)(C)c1ccccc1)C(=O)C(Cc1cnc[nH]1)NC(=O)OCc1ccccc1 (centres unmarked) [Example 8, (2-(3H-Imidazol-4-yl)-1-{(2-methoxy-ethyl)-[(2-methyl-2-phenyl-propylcarbamoyl)-methyl]-carbamoyl}-ethyl)-carbamic acid benzyl ester]	4.8	0.019	0.2	–	–
C/C=C/CN(CC(=O)NCC(C)(C)c1ccccc1)C(=O)[C@H](Cc1c[nH]cn1)NC(=O)OCc1ccccc1 [Example 9, Benzyl N-[2-((E)-2-butenyl-2-[(2-methyl-2-phenylpropyl)amino]-2-oxoethylamino)-1-(1H-4-imidazolylmethyl1)-2-oxoethyl]carbamate]	1.4	0.011	0.01	–	–
CC(OC(=O)NC(Cc1c[nH]cn1)C(=O)N(CC(=O)NCC(C)(C)c1ccccc1)Cc1ccc(OCc2ccccc2)cc1)c1ccccc1 (centres unmarked) [Example 10, [1-{(4-Benzyloxy-benzyl)-[(2-methyl-2-phenyl-propylcarbamoyl)-methyl]-carbamoyl}-2-(1H-imidazol-4-yl)-ethyl]-carbamic acid 1-phenyl-ethyl ester]	0.25	0.004	0.01	–	–
CC(C)(CNC(=O)CN(CCN1CCOCC1)C(=O)[C@H](Cc1c[nH]cn1)NC(=O)OCc1ccccc1)c1ccccc1 [Example 11, Benzyl N-(1S)-1-(1H-4-imidazolylmethyl)-2-[2-[(2-methyl-2-phenylpropyl)amino]-2-oxoethyl(2-morpholinoethyl)amino]-2-oxoethylcarbamate]	2.1	0.016	0.2	–	–
CC(C)OC(=O)CCN(CC(=O)NCC(C)(C)c1ccccc1)C(=O)[C@H](Cc1c[nH]cn1)NC(=O)OCc1ccccc1 [Example 12, 3-{[2-Benzyloxycarbonylamino-3-(3H-imidazol-4-yl)-propionyl]-[(2-methyl-2-phenyl-prolylcarbamoyl)-methyl]-amino}-propionic acid isopropyl ester]	2.2	0.034	–	–	–
CN(C)C(=O)CCN(CC(=O)NCC(C)(C)c1ccccc1)C(=O)C(Cc1cnc[nH]1)NC(=O)OCc1ccccc1 (centres unmarked) [Example 13, [1-{(2-Dimethylcarbamoyl-ethyl)-[(2-methyl-2-phenyl-propylcarbamoyl)-methyl]-carbamoyl}-2-(3H-imidazol-4-yl)ethyl]-carbamic acid benzyl ester]	4	0.007	–	–	–
CSCCN(CC(=O)NCC(C)(C)c1ccccc1)C(=O)C(Cc1cnc[nH]1)NC(=O)OCc1ccccc1 (centres unmarked) [Example 14, {2-(3H-Imidazol-4-yl)-1-[[(2-methyl-2-phenyl-propylcarbamoyl)-methyl]-(2-methylsulfanyl-ethyl)-carbamoyl]-ethyl}-carbamic acid benzyl ester]	1.2	0.006	0.05	–	–
CSCC[C@H](NC(=O)c1ccc(NC[C@@H](N)CS)cc1-c1ccccc1)C(=O)O [FT1276]	–	–	–	selectively block tumor growth	–
CC[C@H](C)[C@@H](CO[C@@H](Cc1ccccc1)C(=O)N[C@@H](CCS(C)(=O)=O)C(=O)OC(C)C)NC[C@@H](N)CS [L-744,832]	–	–	–	–	caused tumor regression
